# Legend:
# CSN5 = molecular target: T1, CSN5 (Homo sapiens, UniProt Q92905); assay: CSN5 activity assay (CSN deneddylation, fluorescence polarization); assay type: biochemical; settings: JAMM domain protease; means±s.d.
# T1 construct: made in house; host or cells: Sf21 insect cells, co-infection of separate baculoviruses
# Method: Unlike the majority of proteases, it is not active as an individual subunit or as an isolated catalytic domain. […] For the identification of CSN inhibitors, we therefore conducted a high-throughput screening campaign using a biochemical assay with recombinant CSN and a fluorescence-labelled and NEDD8-modified CRL substrate[30][40] (PT22-NEDD8-SCF^Skp2; Supplementary Table 1).
# The potency of CSN5 inhibitors was determined in a CSN activity assay using changes in fluorescence polarization as the readout. Reactions were carried out at room temperature in 384-well plates. […] The effect of compound on enzymatic activity was determined from the linear part of the progression curves by an end-point measurement of the fluorescence polarization at 590 nm after excitation at 540 nm using a PHERAstar plate reader (BMG LABTECH GmbH). IC50 values were calculated from the plot of percentage of inhibition versus inhibitor concentration using the non-linear regression analysis software Origin 7.5SR6 (OriginLab Corp.).
# CYP3A4 = CYP3A4 (Homo sapiens, UniProt P08684); assay: CYP3A4 inhibition; assay type: in vitro ADME
# Chain of CYP3A4 (P08684 whole entry, species assumed): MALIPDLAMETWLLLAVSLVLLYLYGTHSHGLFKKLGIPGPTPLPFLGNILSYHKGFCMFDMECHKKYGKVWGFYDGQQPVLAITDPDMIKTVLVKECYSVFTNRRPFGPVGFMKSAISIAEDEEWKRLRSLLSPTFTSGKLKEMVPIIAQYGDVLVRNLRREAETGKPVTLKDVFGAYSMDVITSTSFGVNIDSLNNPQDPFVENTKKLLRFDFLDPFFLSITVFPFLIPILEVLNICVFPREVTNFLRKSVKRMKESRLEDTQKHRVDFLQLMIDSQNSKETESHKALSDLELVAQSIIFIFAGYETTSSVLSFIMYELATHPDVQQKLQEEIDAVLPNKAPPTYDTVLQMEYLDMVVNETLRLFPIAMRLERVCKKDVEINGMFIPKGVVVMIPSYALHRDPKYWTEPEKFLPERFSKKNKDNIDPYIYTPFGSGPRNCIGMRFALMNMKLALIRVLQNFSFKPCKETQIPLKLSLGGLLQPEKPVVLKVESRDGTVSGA
# From the text: Table 2 CYP3A4 inhibition and key pharmacokinetic parameters in mice of CSN5 inhibitors. | column: CSN5i-2; CSN5i-3
# [1] = Pharmacokinetics in mice (single i.v. and oral dose); settings: mouse, in vivo, mice (n=3), single i.v. 1 mg per kg and single oral 3 mg per kg dose; for clearance: read-out: Cl (clearance); for bioavailability: read-out: F (absolute bioavailability); for half-life: read-out: t1/2 (half-life)
# Human AMSHLP = molecular target: T2, Human AMSHLP (Homo sapiens, UniProt Q96FJ0); assay: Selectivity assay AMSHLP (ubiquitin-rhodamine110-glycine substrate); assay type: biochemical; settings: JAMM domain protease
# T2 construct: made in house; host or cells: E. coli
# T2 sequence (Q96FJ0 1-436): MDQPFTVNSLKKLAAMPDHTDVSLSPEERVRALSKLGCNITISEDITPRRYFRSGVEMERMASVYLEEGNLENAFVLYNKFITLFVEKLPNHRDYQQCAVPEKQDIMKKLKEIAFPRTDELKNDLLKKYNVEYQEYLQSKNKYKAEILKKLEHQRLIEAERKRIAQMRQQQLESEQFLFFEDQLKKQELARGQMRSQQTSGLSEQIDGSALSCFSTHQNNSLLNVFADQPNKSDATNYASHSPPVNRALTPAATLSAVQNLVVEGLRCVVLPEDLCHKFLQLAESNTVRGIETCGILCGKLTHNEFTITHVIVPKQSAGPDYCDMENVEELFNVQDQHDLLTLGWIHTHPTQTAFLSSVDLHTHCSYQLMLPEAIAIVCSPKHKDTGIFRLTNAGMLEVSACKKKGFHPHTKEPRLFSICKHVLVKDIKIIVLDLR
# Method: (§1) All biochemical assays were performed at room temperature in 384-well plates in a total volume of 25.25 μl per well. Test compounds were dissolved in 90% (v/v) DMSO/water. For the assays, 250 nl of compound solution was added per well, followed by addition of 12.5 μl protease solution. After 70 min of pre-incubation at room temperature, the reactions were started by addition of 12.5 μl substrate solution and followed either by measuring fluorescence intensity (rhodamine 110-based substrates) or by fluorescence lifetime (PT14-based substrates). The effect of compound on enzymatic activity was obtained from the linear part of the progress curves and determined after 1 h (t=60 min). The final compound concentrations ranged from 100 μM to 1 nM.
# Human AMSHLP. Enzyme was expressed in and purified from E. coli; substrate: ubiquitin-rhodamine110-glycine was purchased from emp Biotech GmbH (Berlin, Germany; product number AS 09/12-A4); enzyme concentration: 4 nM; substrate concentration: 200 nM; assay buffer: 100 mM Tris/HCl at pH 7.5, 10 mM CaCl2, 100 mM NaCl, 10 μM ZnCl2, 0.005% (v/v) BRIJ 35 and 5 mM dithioerythritol (DTE).
# human MMP9 = molecular target: T3, human MMP9 (Homo sapiens, UniProt P14780); assay: Selectivity assay MMP9; assay type: biochemical
# T3 construct: human MMP9 (Uniprot P14780), amino acids 1–707; made in house; host or cells: stably transfected 293 cells
# T3 sequence (P14780 20-707): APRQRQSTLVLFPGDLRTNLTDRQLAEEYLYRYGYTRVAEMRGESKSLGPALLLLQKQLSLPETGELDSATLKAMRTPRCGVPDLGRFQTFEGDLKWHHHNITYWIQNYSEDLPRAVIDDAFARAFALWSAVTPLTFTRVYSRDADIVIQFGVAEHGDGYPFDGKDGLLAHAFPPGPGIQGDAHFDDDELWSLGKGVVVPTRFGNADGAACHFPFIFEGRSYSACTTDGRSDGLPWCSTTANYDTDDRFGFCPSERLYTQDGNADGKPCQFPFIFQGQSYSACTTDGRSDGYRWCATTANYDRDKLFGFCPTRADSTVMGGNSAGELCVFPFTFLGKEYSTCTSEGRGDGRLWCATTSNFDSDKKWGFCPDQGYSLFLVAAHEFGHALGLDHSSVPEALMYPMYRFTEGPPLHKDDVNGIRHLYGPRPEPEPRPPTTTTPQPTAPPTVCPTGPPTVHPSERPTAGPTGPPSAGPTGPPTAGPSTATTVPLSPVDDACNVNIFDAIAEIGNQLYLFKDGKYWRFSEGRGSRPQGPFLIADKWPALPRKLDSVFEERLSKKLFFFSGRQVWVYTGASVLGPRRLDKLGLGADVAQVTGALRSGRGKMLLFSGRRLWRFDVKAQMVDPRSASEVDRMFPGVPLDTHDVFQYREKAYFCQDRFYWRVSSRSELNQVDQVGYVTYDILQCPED
# Method: as §1
# Matrix metalloproteinases. Human MMP1 (Uniprot P03956), amino acids 1–469, expressed in and purified from stable transfected C127 cells; human MMP2 (Uniprot P08253), amino acids 1–660, expressed in and purified from insect cells (baculovirus expression system); human MMP8 (Uniprot P22894), amino acids 100–262, expressed in and purified from E. coli; human MMP9 (Uniprot P14780), amino acids 1–707, expressed in and purified from stable transfected 293 cells; human MMP12 (Uniprot P39900), amino acids 101–268, expressed in and purified from E. coli; human MMP13 (Uniprot P45452), amino acids 103–274, expressed in and purified from E. coli; human MMP14 (Uniprot P50281), amino acids 112–284, expressed in and purified from E. coli; human ADAM17 (Uniprot P78536), amino acids 1–670, expressed in and purified from insect cells (baculovirus expression system); substrate: Ac-C(PT14)-[…]-NH2 purchased from Biosyntan (product number 8069); enzyme concentrations: 3 nM (MMP1), 1 nM (MMP2), 3 nM (MMP8), 0.1 nM (MMP9), 0.5 nM (MMP12), 0.13 nM (MMP13), 0.005 nM (MMP14), 30 nM (ADAM17); substrate concentration: 0.8 μM; assay buffer: 100 mM Tris, pH 7.4, 100 mM NaCl, 10 mM CaCl2, 10 μM ZnCl2, 0.075% (v/v) Brij35.
# NCI-H2030 cells = assay: Cell viability assay (CellTiter-Glo), NCI-H2030; assay type: cell-based, human; settings: NCI-H2030, 72 h; cytostatic
# Method: Cells were maintained in a humidified incubator at 37 °C and 5% CO2. […] All cells were negatively tested for mycoplasma contamination either by the vendor or in house. […] If not stated otherwise, cells were harvested after incubation for 16 h and subjected to SDS-PAGE and western blotting. The RNA interference experiment was performed with CSN5 stealth siRNA (#HSS116986) and stealth negative control siRNA (#12935-400) (Invitrogen), which were transfected at 10 nM into HCT116 cells using […] (Qiagen) according to the manufacturer's protocols. Seventy-two hours after transfection, cells were harvested and subjected to SDS-PAGE and western blotting (see Supplementary Fig. 7 for all western blottings performed). A standardized CellTiter-Glo Assay (Promega #G7570) based on the quantification of ATP was applied according to the manufacturer's protocol to measure the amount of viable cells in culture. In brief, cells were seeded into 384-well plates at optimal density for each cell line. After 4 h, compounds were added at different concentrations in growth medium and incubated for another 72 h in a humidifying chamber at 37 °C and 5% CO2. Eventually, equal amounts of CellTiter-Glo reagent were added directly to the cells, incubated for 15 min and luminescence was recorded using PHERAstar plate reader (BMG LABTECH GmbH).
Structure (SMILES),IC50 (CSN5),IC50 (CYP3A4),clearance [1],bioavailability [1],half-life [1],IC50 (Human AMSHLP),IC50 (human MMP9),AMAX (NCI-H2030 cells)
"COCc1ccccc1NCc1ccc([C@H]2[C@@H](O)CCCc3cncn32)c(-c2ccccc2Cl)c1 [CSN5i-2, (5S,6S)-5-(2′-chloro-5-(((2-(methoxymethyl)phenyl)amino)methyl)-[1,1′-biphenyl]-2-yl)-6,7,8,9-tetrahydro-5H-imidazo[1,5-a]azepin-6-ol]",0.002 ± 0.001 µM,< 0.5 µM,82 ± 25 mL/min/kg,< 1%,0.6 ± 0.0167 h,> 100 µM,3.8 ± 0.4 µM,
"COCc1ccccc1NCc1ccc([C@@H]2[C@H](O)CCCc3cncn32)c(-c2ccccc2Cl)c1 [CSN5i-2e, (5R,6R)-5-(2′-chloro-5-(((2-(methoxymethyl)phenyl)amino)methyl)-[1,1′-biphenyl]-2-yl)-6,7,8,9-tetrahydro-5H-imidazo[1,5-a]azepin-6-ol]",2.1 ± 1.8 µM,,,,,> 100 µM,3.2 ± 0.2 µM,
"CC(C)n1nc(C(F)F)cc1C(=O)Nc1ccc([C@H]2[C@@H](O)CCCc3cncn32)c(-c2ccccc2)c1 [CSN5i-3, 3-(Difluoromethyl)-N-(6-((5S,6S)-6-hydroxy-6,7,8,9-tetrahydro-5H-imidazo[1,5-a]azepin-5-yl)-[1,1′-biphenyl]-3-yl)-1-isopropyl-1H-pyrazole-5-carboxamide]",,6.8 ± 1.8 µM,36 ± 3 mL/min/kg,33 ± 2%,2.5 ± 0.3 h,> 100 µM,7.4 ± 2 µM,about −50%
